Data reported in the supplement of paper PMC8988213.

How the values were obtained:
[1] = tested on: ID188 patient-derived PDAC 2D line (pre-FOLFIRINOX); assay: normalised area under dose-response curve (viability relative to DMSO, 7 doses up to 10 µM) (fraction (AUC)); higher = less sensitive (more viability retained); conditions: 72 h; top dose: 10 µM
In short: (§1)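 2D PDAC cells grown out from patient-derived organoids were robotically seeded in 96-well plates at 1,500–3,000 cells/well and kept overnight at 37°C in 5% CO2. Compounds from a SelleckChem library were then applied for 72 h at seven concentrations, made as a 3-fold dilution series with 10 µM as the highest. CellTiter-Glo luminescence was measured 10 min later. Viability was normalised to control wells, and the GRmetrics R package was used to derive the area under the dose-response curve.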

[2] = tested on: ID211 patient-derived PDAC 2D line (post-FOLFIRINOX); assay: as above; conditions: 72 h; top dose: 10 µM
In short: as §1

Row | Structure (SMILES) | normalised area under dose-response curve [1] | normalised area under dose-response curve [2]
1 | COc1ccc(-n2c(SCCCN3C(=O)c4cccc5cccc(c45)C3=O)nnc2-c2ccncc2)cc1 [WIKI4] | 0.837 | 0.85
2 | CCC(=O)Nc1cccc(Oc2nc(Nc3ccc(N4CCN(C)CC4)cc3OC)ncc2Cl)c1 [WZ4003] | 0.965 | 0.896
3 | Oc1nc(-c2ccc(C(F)(F)F)cc2)nc2c1CSCC2 [XAV-939] | 0.89 | 0.928
4 | CN1c2ccccc2C(=O)Nc2cnc(Nc3ccc(N4CCC(O)CC4)cc3)nc21 [XMD16-5] | 0.906 | 0.783
5 | COc1cc(O)c(CC=C(C)C)c(O)c1C(=O)/C=C/c1ccc(O)cc1 [Xanthohumol] | 0.943 | 0.926
6 | COCC[n+]1c2c(n(Cc3cnccn3)c1C)C(=O)c1ccccc1C2=O [YM155 (Sepantronium Bromide)] | 0.0409 | 0.279
7 | Cc1cc(C)nc(NS(=O)(=O)c2ccc(NC(=S)NC(=O)COc3ccc(Br)cc3Cl)cc2)n1 [ZCL278] | 0.928 | 0.777
8 | FC(F)c1nc2ccccc2n1-c1nc(N2CCOCC2)nc(N2CCOCC2)n1 [ZSTK474] | 0.712 | 0.642
9 | COc1nc(C)cnc1NS(=O)(=O)c1cccnc1-c1ccc(-c2nnco2)cc1 [Zibotentan (ZD4054)] | 0.96 | 0.955
10 | CC(c1cc2ccccc2s1)N(O)C(N)=O (centres undefined) [Zileuton] | 0.817 | 0.859
11 | C=CC(=O)N1C/C(=C\c2ccc([N+](=O)[O-])cc2)C(=O)/C(=C/c2ccc([N+](=O)[O-])cc2)C1 [b-AP15] | 0.504 | 0.671
12 | Cc1cc(Nc2cc(N)ncn2)c(=O)n2c1C(=O)NC21CCCCC1 [eFT-508 (eFT508)] | 0.977 | 1.01
